Results: patent US6943000B2, “JNK3 modulators and methods of use” (priority 1997, dated 2005)

Assays:
Format in all cases: in vivo, mouse
[1] = tested on: hippocampal neurons; assay: Kainate-induced neuronal damage in the hippocampus (Nissl's stain, GFAP, TUNEL, toluidine stain); conditions: KA 45 mg/kg, JNK2(−/−) mice as printed
[2] = tested on: AP-1 transcriptional activity; assay: KA-induced AP-1 transcriptional activity (luciferase assay, AP1-luc mice); conditions: KA 30 mg/kg i.p.
Description: Since the phosphorylation of c-Jun is an important initial event during the induction of AP-1 transcriptional activity (Whitemarsh et al., supra; Yang et al., supra), whether the observed attenuation of c-Jun phosphorylation would lead to decreased induction of AP-1 transcriptional activity in JNK3 (−/−) mice was examined. JNK(-1-) mice were crossed with transgenic AP-1 luciferase (AP1-luc) mice (Rincon et al., Embo. J. 13:4370-4381, 1994) and progeny back crossed. The JNK3(−/−)/API-Luc(−/+) mice were used in experiments with JNK3(+/+) mice to compare the level of KA-induced AP-1 transcriptional activity in the presence or absence of JNK3. The AP1-luc mice contain the firefly luciferase gene under the control of four copies of a consensus AP-1 binding site in the context of the minimal rat prolactin promoter. It has been established that the expression of luciferase in these mice is due to the presence of the AP-1 regulatory element.
In the luciferase assay, mice were sacrificed at intervals after injection of KA (30 mg/kg, i.p.), and relative luciferase activity compared with that detected in hippocampal lysates obtained from mice injected with vehicle (saline). Mice were decapitated, brains were dissected, and brain tissues were immediately lysed in buffer containing 25 mM Hepes pH 7.4, 1% TRITON®X-100, 1 mM EDTA, 1 mM phenylmethyl sulfonyl fluoride, and 10 μg/ml leupeptin (Promega, Madison, Wis.). Luciferase activity was measured as described in Rincon and Flavell (Embo. J. 13:4370-4381, 1994). The injection of KA (30 mg/kg, i.p.) caused a large induction of AP-1 transcriptional activity in the hippocampus of wild-type mice, as evidenced by the induction of luciferase activity.
The relative luciferase activity in the hippocampus and cerebellum prepared from wild-type (+/+) and JNK3 (−/−) mice was measured following KA injection. Each time point represents the mean of three to five (+SEM) individual animals. […]

[3] = tested on: mice; assay: KA-induced seizures in wild-type and JNK3(−/−) mice
Procedure: JNK3(−/−) mice and their wild-type littermates were injected intraperitoneally (i.p.) with 30 mg/kg KA to induce seizures (Ben-Ari, supra). In wild-type mice, the administration of KA first induced “staring spells” with abnormal body posture, then progressed to head nodding (“wet-dog shakes”), fore-paw tremor, rearing, loss of postural control, and eventually, continuous convulsions. […] Wild-type and heterozygous mice developed motor symptoms of seizures, including rearing, at 30 to 40 minutes post-injection. The JNK3 (−/−) mice, in contrast, developed much milder symptoms, mainly consisting of “staring” spells and occasional myoclonic tremors. […] Further, JNK3(−/−) mice recovered from the drug administration more rapidly than wild-type mice (FIG. 7). Seizure classifications as shown in FIGS. 7 and 8 are: 1, arrest of motion; 2, myoclonic jerks of the head and neck, with brief twitching movements; 3, unilateral clonic activity; 4, bilateral forelimb tonic and clonic activity; and 5, generalized tonic-clonic activity with loss of postural tone, often resulting in death.

[4] = tested on: c-Jun phosphorylated at Ser-73; assay: KA-induced phosphorylation of c-Jun in hippocampus (immunocytochemistry); conditions: KA 30 mg/kg i.p., two hours after injection
Procedure: To further define this phenomenon, the distribution of KA-induced c-Fos and c-Jun immunoreactivity along the synaptic circuit of the hippocampus was examined. In these experiments, homozygous mutant and control wild-type mice were killed and fixed by transcardial perfusion of 4% paraformaldehyde at 2 or 6 hours after the injection of KA (30 mg/kg, i.p.). Brains from both groups were removed, post-fixed for one hour, and sectioned on a Vibratome ([…]). Tissue sections were processed by immunocytochemistry to detect the expression of c-June (Santa Cruz, cat# sc-45), c-Fos (Santa Cruz, cat# sc-52), and phospho-specific c-Jun (Ser-73) (New England Biolabs, #9164S). Sections were floated in a solution of the primary antibody (diluted 200× in PBS) and incubated overnight at room temperature. Secondary antibody incubation, avidin-biotin conjugated peroxidase (Vectastain Elite ABC kit, Vector Lab.), and DAB (3, 3′-diaminobenzidine, Sigma) reactions were performed using standard procedures (Hsu et al., supra). In the absence of KA, there was no detectable c-Fos expression and only a few c-Jun-positive cells within the dentate gyrus. […]
In addition, there was a dynamic change of the distribution of phosphorylated c-Jun in the wild type mouse hippocampus. […] In contrast, no labeling of phosphorylated c-Jun was detected in the JNK3(−/−) mice at the same time point. […]

[5] = tested on: hippocampal neurons; assay: Kainate-induced neuronal damage in the hippocampus (Nissl's stain, GFAP, TUNEL, toluidine stain)
Procedure: These experiments were performed as follows. Wild-type and JNK3 (−/−) mice were killed and fixed by transcardial perfusion of 4% paraformaldehyde and 1.5% glutaraldehyde three days after the injection of KA (30 mg/kg, i.p.). Semithin and thin sections of brain were prepared using a Vibratome and embedded in Epon. Tissue blocks were prepared using a microtome with a diamond tube for 1 μm-thick semithin sections examined by toluidine blue staining, and for ultrathin sections examined by electron microscopy. Nissl's stain was used for initial examination of damage to the hippocampus (Kluver et al., J. Neuropath. Exp. Neuro. 12:400-403, 1953). GFAP immunocytochemistry was also used to assess cell destruction in the hippocampus (Hsu et al., supra). Nissl's staining was also performed as described above. TUNEL assays, used to evaluate apoptosis, were performed using cryostat sections (50 μm) of cerebral hemispheres that were cryoprotected with sucrose. The TUNEL assay was modified from the terminal deoxynucleotidyl transferase (TdT)-mediated dUTP nick end labeling assay (Gavrieli et al., J. Cell. Biol. 119:493-501, 1992). Briefly, tissue sections, directly mounted on a salinated slide, were permeablized with 2% TRITON® X-100 (20 minutes at room temperature) and then incubated for nick end-labeling for 2 hours at 37° C. using 0.32 U/μl TdT (Boehringer Mannheim, cat# 220582) and 2 μM digoxigenin-11-dUTP (Boehringer Mannheim, cat# 1573152) in a final volume of 40 μl. The tissues were incubated with anti-digoxigenin antibody (Boehringer Mannheim, cat# 1333062) diluted 500-fold, and processed for immunocytochemistry using standard procedures (Hsu et al., supra).
The damage to the hippocampus caused by KA was initially examined by Nissl's stain. The KA-induced cell loss caused either a breach of staining of the pyramidal neurons in the CA3 region or a diffuse sparse staining throughout the CA1 subfield. […] Groups of small pyknotic nuclei and positively TUNEL-labeled cells were found in the hippocampal CA3 subfield devoid of Nissl's staining. […] Since the TUNEL method and the pyknosis morphology only indicated the extent of cell damage at one time point of a dynamic process, immunostaining of damage-induced GFAP was also used as an independent assessment of the extent of cell destruction in the hippocampus. Consistent with the patterns of Nissl's, toluidine, and TUNEL staining, an increased number of strongly GFAP-labeled astrocytes was found either in the hippocampal CA3 or CAl regions. Thus, a combination of Nissl's stain, GFAP immunocytochemistry, TUNEL method, and toluidine stain of semithin sections was used to classify the KA-induced damage in the mouse hippocampus.
A total of 17 wild-type and 18 JNK3(−/−) mice were examined. The table was compiled from two sets of data. First, wild-type (n=11) and JNK3 (−/−) (n=10) mice were sacrificed on the fifth day after a single injection of KA (30 mg/kg, i.p.). Second, wild-type (n=6) and JNK3 (−/−) (n=8) mice received an injection of KA (30 mg/kg, i. p.) for five consecutive days and examined two days following the final injection. […] The ratio of no cell loss/CA3 lesion/CA3+CA1 lesion was 2/7/2 in the single-injection experiments, and 2/2/2 in the multiple injection experiments.

[6] = tested on: mice; assay: Pentetrazole (PTZ)-induced seizures in wild-type and JNK3(−/−) mice
Description: Since the resistance to KA-induced seizures varied between littermates (+/+ and +/− are less resistant than −/− mice), the observed differential susceptibility cannot be attributed to a difference between mouse strains (Schauwecker and Steward, Proc. Nat. Acad. Sci. USA 94:4103-4108, 1997). However, the resistance of JNK3 deficient mice to KA-induced seizures could be due to decreased drug penetration across the blood-brain barrier or an increased GABA (gamma-aminobutyric acid) inhibitory postsynaptic potential (IPSP), or the ablation of a specific signal transduction pathway mediated by the JNK3 protein kinase. To distinguish between these possibilities, the response of JNK3 (−/−) and wild-type mice to another epileptogenic agent, pentetrazole (PTZ) (Sigma), was examined. PTZ was selected due to its ability to induce seizures by blocking the GABA-IPSPs (Ben-Ari et al., Neurosci. 6:1361-1391, 1981).
Thus, the differential susceptibility to KA toxicity in JNK3(−/−) mice can neither be explained as a consequence of poor drug delivery to the nervous system nor by potent GABA-IPSPs in the neural circuit. Furthermore, we examined the expression of the kainate-type glutamate receptor subunits GluR5-7 (Pharmingen cat. No. 60006E) by immunocytochemistry using standard methods.

[7] = KA 30 mg/kg i.p., wild-type mice
[8] = KA 30 mg/kg i.p., JNK3 genotype +/+
[9] = KA 30 mg/kg i.p., JNK3 genotype −/−

## C=C(C)[C@H]1CN[C@H](C(=O)O)[C@H]1CC(=O)O [KA, kainic acid]
[1]
  animals with cell damage (fraction): 2/15
[1]; p<0.005
  animals with cell damage: 13%
[2]; 15 hours after injection
  AP-1 activity in hippocampus, wild-type compared with JNK3(−/−) mice: approximately four-fold greater
[2]; three days after injection
  AP-1 activity in hippocampus, wild-type compared with JNK3(−/−) mice: more than six times higher
[2]; wild-type AP1-luc mice
  time of peak luciferase activity in hippocampus: three days
[3]; KA 30 mg/kg i.p., JNK3(−/−) mice
  seizure severity: did not develop grand mal seizures
[3]; [7]
  time at which seizure activities subsided: one hour after injection
[3]; KA 45 mg/kg i.p., JNK3(−/−) mice
  survival: all of the JNK3(−/−) mice survived
[3]; KA 45 mg/kg i.p., wild-type mice
  mice that died from continuous tonic clonic convulsions: more than 60%
[4]; JNK3(−/−) mice
  phosphorylated c-Jun in hippocampus: only a trace amount
[4]; wild-type mice
  phosphorylated c-Jun in the dentate gyrus and CA3/CA4 region of the hippocampus: high level of phosphorylated c-Jun
[5]; KA 30 mg/kg i.p., JNK3(−/−) mice (n=18)
  hippocampal damage: no apparent hippocampal damage
[5]; [8]
  Including CA1 cell loss: 4 number of animals
  No perceivable cell loss: 4 number of animals
  Selective CA3 cell loss: 9 number of animals
[5]; [9]
  Including CA1 cell loss: 0 number of animals
  No perceivable cell loss: 18 number of animals
  Selective CA3 cell loss: 0 number of animals
[5]; [7]
  animals with damage of the hippocampal CA3 region: 53%
  animals with damage of the hippocampal CA3 region (fraction): 9/17
  animals with massive cell loss throughout the entire hippocampal CA1 region: 24%
  animals with massive cell loss throughout the entire hippocampal CA1 region (fraction): 4/17
[5]; wild-type mice, KA 30 mg/kg i.p. for five consecutive days, examined two days after final injection
  ratio of no cell loss/CA3 lesion/CA3+CA1 lesion: 2/2/2
[5]; wild-type mice, single injection of KA 30 mg/kg i.p., sacrificed on the fifth day
  ratio of no cell loss/CA3 lesion/CA3+CA1 lesion: 2/7/2

## C1CCc2nnnn2CC1 [PTZ, pentetrazole]
[6]; PTZ 30, 40, 50, 60 mg/kg i.p.
  seizure severity, JNK3(−/−) mice versus wild-type littermates: comparable severity
[6]; PTZ i.p.
  time to abrupt general tonic-clonic seizures after injection: within five minutes
